Common to all, as to assay type: cell-based
The test system of one experiment is H358 cells. Kind of experiment: H358 proliferation assay (CellTiter-Glo). The note with it: 120 h incubation, read-out: IC50 (nM), inhibitory activity against H358 cell proliferation. Here is the method:
The inhibitory activity of the compounds of the present disclosure against H358 cell proliferation was measured. Below is a brief description of the experimental method: H358 cells (ATCC, CRL-5807) were cultured in RPMI1640 medium (Hyclone, SH30809.01) containing 10% fetal bovine serum (Corning, 35-076-CV) (i.e., complete medium). On the first day of the experiment, H358 cells were seeded into a 96-well plate at a density of 1200 cells/well using complete medium, with 100 μL of cell suspension per well, and the plate was incubated overnight in a 37° C., 5% CO2 cell incubator. On the second day, the test compounds, prepared in complete medium and serially diluted, were added at 10 μL/well. The final concentrations of the compounds were 9 concentration points obtained by a 5-fold serial dilution from 10 μM. A blank control containing 0.5% DMSO was set up. The plate was incubated for 120 h in a 37° C., 5% CO2 cell incubator. On the seventh day, the 96-well cell plate was removed from the incubator, and CellTiter-Glo® Luminescent Cell Viability Assay (Promega, G7573) was added at 50 μL/well. After 10 min of room temperature incubation, luminescence signals were measured using a multifunctional microplate reader (PerkinElmer, EnVision® 2105). The IC50 values for the inhibitory activity of the compounds were calculated using Graphpad Prism software.

In experiment [1] the test system is ERK phosphorylation in H358 cells. Kind of experiment: H358 cell ERK phosphorylation inhibition assay (HTRF pERK/total ERK). The following applies: 3 h incubation, ratio of pERK/total ERK, read-out: IC50 (nM), inhibitory effects on ERK phosphorylation in H358 cells. The protocol: The inhibitory effects of the compounds of the present disclosure on ERK phosphorylation in H358 cells were measured. Below is a brief description of the experimental method: H358 cells (ATCC, CRL-5807) were cultured in RPMI1640 medium (Hyclone, SH30809.01) containing 10% fetal bovine serum (Corning, 35-076-CV) (i.e., complete medium). On the first day of the experiment, H358 cells were seeded into a 96-well plate at a density of 25,000 cells/well using complete medium, with 190 μL of cell suspension per well, and the plate was incubated overnight in a 37° C., 5% CO2 cell incubator. On the second day, the test compounds, prepared in complete medium and serially diluted, were added at 10 μL/well. The final concentrations of the compounds were 9 concentration points obtained by a 6-fold serial dilution from 10 μM. A blank control containing 0.5% DMSO was set up. The plate was incubated for 3 h in a 37° C., 5% CO2 cell incubator. After 3 h, the 96-well cell culture plate was removed from the incubator, and the culture medium was pipetted off. PBS (Shanghai BasalMedia Technologies Co., Ltd., B320) was added at 200 μL/well for a single wash. PBS was pipetted off, and lysis buffer (Cisbio, 64KL1FDF) containing a blocking agent (Cisbio, 64KB1AAC) was added at 50 μL/well. The plate was incubated on a shaker for 30 min at room temperature to lyse the cells. After lysis, the lysates were well mixed by pipetting, and 16 μL of lysate was transferred from each well to two HTRF 96-well assay plates (Cisbio, 66PL96100). Subsequently, 4 μL of a premixed phospho-ERK1/2 antibody solution (Cisbio, 64AERPEG) or 4 μL of a premixed total-ERK1/2 antibody solution (Cisbio, 64NRKPEG) was added to each of the plates. The plates were sealed with a plate sealer film, centrifuged for 1 min in a microplate centrifuge, and incubated overnight at room temperature in the dark. On the third day, fluorescence values at an excitation wavelength of 337 nm and emission wavelengths of 665 nm and 620 nm were measured using a PHERAstar multifunctional microplate reader (BMG Labtech, PHERAstar FS). The IC50 values for the inhibitory activity of the compounds were calculated using Graphpad Prism software, based on the compound concentration and the ratio of pERK/total ERK.

A further experiment has as its system MIA PaCa-2 cells. The experiment is described as follows: MIA PaCa-2 cell proliferation assay (CellTiter-Glo). The following applies: 72 h incubation, read-out: IC50 (nM), inhibitory activity against MIA PaCa-2 cell proliferation. Here is the method: The inhibitory activity of the compounds of the present disclosure against MIA PaCa-2 cell proliferation was measured. Below is a brief description of the experimental method:
MIA PaCa-2 cells (ATCC, CRL-1420) were cultured in DMEM/HIGH GLUCOSE medium (GE, SH30243.01) containing 10% fetal bovine serum (Corning, 35-076-CV) and 2.5% horse serum (Beyotime Biological Tech., C0262) (i.e., complete medium). On the first day of the experiment, MIA PaCa-2 cells were seeded into a 96-well plate at a density of 500 cells/well using complete medium, with 90 µL of cell suspension per well, and the plate was incubated overnight in a 37° C., 5% CO2 cell incubator. On the second day, the test compounds, prepared in complete medium and serially diluted, were added at 10 μL/well. The final concentrations of the compounds were 9 concentration points obtained by a 5-fold serial dilution from 10 μM. A blank control containing 0.5% DMSO was set up. The plate was incubated for 72 h in a 37° C., 5% CO2 cell incubator. On the fifth day, the 96-well cell plate was removed from the incubator, and CellTiter-Glo® Luminescent Cell Viability Assay (Promega, G7573) was added at 50 μL/well. After 10 min of room temperature incubation, luminescence signals were measured using a multifunctional microplate reader (PerkinElmer, EnVision2015). The IC50 values for the inhibitory activity of the compounds were calculated using Graphpad Prism software.

Where two headings read alike, the source gives them in different places.

`C=CC(=O)N1CCN2C(=O)c3cc(F)c(-c4ccc(F)c5sc(N)c(C#N)c45)c4nnn(c34)CC[C@H]2C1` (atropisomer, axis not shown) [Example 20-P1, (R)-4-((S)-9-Acryloyl-2-fluoro-12-oxo-7,7a,8,9,10,11-hexahydro-6H,12H-4,5,5a,9,11a-pentaazabenzo[5,6]cycloocta[1,2,3-cd]inden-3-yl)-2-amino-7-fluorobenzo[b]thiophene-3-carbonitrile]: the IC50 in the experiment with H358 cells was determined as 4.94 nM; in experiment [1], 3.67 nM; with MIA PaCa-2 cells, 1.66 nM.

With `C=CC(=O)N1CCN2C(=O)c3cc(F)c(-c4ccc(F)c5sc(N)c(C#N)c45)c4nnn(c34)CC[C@H]2C1` (atropisomer, axis not shown) [Example 20-P2, (S)-4-((S)-9-Acryloyl-2-fluoro-12-oxo-7,7a,8,9,10,11-hexahydro-6H,12H-4,5,5a,9,11a-pentaazabenzo[5,6]cycloocta[1,2,3-cd]inden-3-yl)-2-amino-7-fluorobenzo[b]thiophene-3-carbonitrile], the IC50 was 7.9 nM in the experiment with H358 cells (Homo sapiens, NCI-H358, 120 h); 0.88 nM in experiment [1]; 1.21 nM in the experiment on MIA PaCa-2 cells (Homo sapiens, MIA PaCa-2, 72 h).

Regarding `C=CC(=O)N1CCN2C(=O)c3cc(F)c(-c4ccc(F)c5sc(N)c(C#N)c45)c4ccn(c34)CC[C@H]2C1` [Example 2, 4-((S)-10-Acryloyl-2-fluoro-14-oxo-8,8a,9,10,11,12-hexahydro-7H,14H-pyrazino[1′,2′:5,6][1,5]diazocino[3,2,1-hi]indol-3-yl)-2-amino-7-fluorobenzo[b]thiophene-3-carbonitrile], the IC50 was found to be 10.5 nM in the experiment on H358 cells (Homo sapiens, NCI-H358, 120 h); 0.28 nM in experiment [1] (Homo sapiens, NCI-H358, 3 h); 5.87 nM in the experiment with MIA PaCa-2 cells (Homo sapiens, MIA PaCa-2, 72 h).

On to `C=CC(=O)N1CCN2C(=O)c3cc(F)c(-c4ccc(F)c5sc(N)c(C#N)c45)c4cc(C)n(c34)CC[C@H]2C1` [Example 4, 4-((S)-10-Acryloyl-2-fluoro-5-methyl-14-oxo-8,8a,9,10,11,12-hexahydro-7H,14H-pyrazino[1′,2′:5,6][1,5]diazocino[3,2,1-hi]indol-3-yl)-2-amino-7-fluorobenzo[b]thiophene-3-carbonitrile], for which the IC50 was 13.4 nM in the experiment with H358 cells (Homo sapiens, NCI-H358, 120 h); 1.16 nM in experiment [1] (Homo sapiens, NCI-H358, 3 h); 11.2 nM in the experiment on MIA PaCa-2 cells (Homo sapiens, MIA PaCa-2, 72 h).

For the compound `C=CC(=O)N1C[C@@H]2CCn3ncc4c(-c5ccc(F)c6sc(N)c(C#N)c56)c(F)cc(c43)C(=O)N2C[C@H]1C` [Example 10, 4-((8aS,11R)-10-Acryloyl-2-fluoro-11-methyl-14-oxo-8,8a,9,10,11,12-hexahydro-7H,14H-pyrazino[1′,2′:5,6][1,5]diazocino[3,2,1-hi]indazol-3-yl)-2-amino-7-fluorobenzo[b]thiophene-3-carbonitrile], the IC50 in the experiment on H358 cells (Homo sapiens, NCI-H358, 120 h) came to 0.8 nM; in experiment [1] (Homo sapiens, NCI-H358, 3 h), 0.15 nM; with MIA PaCa-2 cells (Homo sapiens, MIA PaCa-2, 72 h), 0.94 nM.

For the origin of these results see US20250122211A1, “NITROGEN-CONTAINING TETRACYCLIC COMPOUND, PREPARATION METHOD THEREFOR, AND MEDICAL USE THEREOF” (Jiangsu Hengrui Pharmaceuticals Co., Ltd., priority 2021, published 2025).
